{"source": "patent US10266544B2", "about": "“Aryl substituted aminomethyl spectinomycin analogs as antibacterial agents” (ST. JUDE CHILDREN'S RESEARCH HOSPITAL, INC., priority 2013, dated 2019)", "format_in_all_cases": "cell-based", "key": {"[1]": {"tested_on": "Bacillus anthracis, Sterne 34F2", "test": "microbe, parasite or virus in culture", "conditions": "STERNE34F2, read-out: MIC B.a."}, "[2]": {"tested_on": "Bacillus subtilis (ATCC 23857)", "test": "MIC determination, microbroth dilution", "conditions": "ATCC23857; Bacillus subtilis (ATCC 23857); read-out: MIC B.s."}, "[3]": {"tested_on": "Enterococcus faecalis (ATCC 33186)", "test": "MIC determination, microbroth dilution", "conditions": "ATCC33186; Enterococcus faecalis (ATCC 33186); read-out: MIC E.f."}, "[4]": {"tested_on": "Staphylococcus aureus (ATCC 29213)", "test": "MIC determination, microbroth dilution", "conditions": "ATCC29213; Staphylococcus aureus (ATCC 29213); read-out: MIC S.a."}, "[5]": {"tested_on": "MRSA, Staphylococcus aureus (NRS70)", "test": "MIC determination, microbroth dilution", "conditions": "Staphylococcus aureus (NRS70); read-out: MIC MRSA"}, "[6]": {"tested_on": "Streptococcus pneumoniae (R6)", "test": "MIC determination, microbroth dilution", "conditions": "Streptococcus pneumoniae (R6); read-out: MIC S. pn."}, "[7]": {"tested_on": "Streptococcus pyogenes (ATCC 700294)", "test": "MIC determination, microbroth dilution", "conditions": "ATCC700294; Streptococcus pyogenes (ATCC 700294); read-out: MIC S. py."}, "[8]": {"tested_on": "acinetobacter baumannii (ATCC 19606)", "test": "MIC determination, microbroth dilution", "conditions": "ATCC19606"}, "[9]": {"tested_on": "Burkholderia cepacia (ATCC 25416)", "test": "MIC determination, microbroth dilution", "conditions": "Burkholderia cepacia"}, "[10]": {"tested_on": "Escherichia coli (ATCC 700926)", "test": "MIC determination, microbroth dilution", "conditions": "ATCC700926; Escherichia coli (ATCC 700926); read-out: MIC E.c."}, "E. coli K12 ΔtolC": {"tested_on": "E. coli K12 ΔtolC", "test": "microbe, parasite or virus in culture", "conditions": "Escherichia coli, read-out: MIC E.c. Δtolc"}, "[11]": {"tested_on": "Klebsiella pneumoniae (ATCC 33495)", "test": "MIC determination, microbroth dilution", "conditions": "ATCC33495"}, "[12]": {"tested_on": "Pseudomonas aeruginosa (PA01)", "test": "MIC determination, microbroth dilution"}, "[13]": {"tested_on": "Proteus mirabilis (ATCC 25933)", "test": "MIC determination, microbroth dilution", "conditions": "ATCC25933"}, "[14]": {"tested_on": "Proteus vulgaris (ATCC 33420)", "test": "MIC determination, microbroth dilution", "conditions": "ATCC33420"}, "[15]": {"tested_on": "Stenotrophomonas maltophilia (ATCC 13637)", "test": "MIC determination, microbroth dilution", "conditions": "ATCC13637; Stenotrophomonas maltophilia (ATCC 13637); read-out: MIC S.m."}, "[16]": {"tested_on": "Haemophilus influenza (ATCC 49247)", "test": "microbe, parasite or virus in culture", "conditions": "ATCC49247; Haemophilus influenza; 4 μg per disc; range of at least two experiments; read-out: Zone of inhibition H.i."}, "[17]": {"tested_on": "Neisseria meningitides (ATCC 13077)", "test": "Disc diffusion assay", "conditions": "ATCC13077, 4 μg per disc, read-out: Zone of inhibition N.m."}, "[18]": {"tested_on": "Neisseria gonorrhoeae (ATCC 49226)", "test": "Disc diffusion assay", "conditions": "ATCC49226, 4 μg per disc, read-out: Zone of inhibition N.g."}, "[19]": {"tested_on": "Neisseria gonorrhoeae (ATCC 49226)", "test": "Agar MIC determination (Alamar Blue)", "conditions": "ATCC49226, agar MIC, read-out: MIC N.g."}, "Bacillus anthracis": {"tested_on": "Bacillus anthracis", "test": "microbe, parasite or virus in culture", "conditions": "read-out: MIC B.a."}, "Yersinia pestis": {"tested_on": "Yersinia pestis", "test": "microbe, parasite or virus in culture", "conditions": "read-out: MIC Y.p."}, "[20]": {"tested_on": "M. tuberculosis clinical isolates", "test": "microbe, parasite or virus in culture", "conditions": "Mycobacterium tuberculosis, H37RV, read-out: MIC H37Rv"}, "[21]": {"tested_on": "gram-positive and gram-negative bacteria"}, "Listeria monocytogenes": {"tested_on": "Listeria monocytogenes", "test": "MIC determination (Table 6)"}, "Moraxella catarrhalis": {"tested_on": "Moraxella catarrhalis", "test": "MIC determination (Table 6)"}}, "note": "Where a name gives a salt, the structure may show the parent alone. Read-outs that look alike come from different tables or passages of the source."}
{"compound": "CN[C@@H]1[C@H](O)[C@H](NC)[C@H]2O[C@]3(O)[C@H](O[C@@H]2[C@H]1O)O[C@H](C)C[C@@]3(O)CNCCCc1ccccc1", "note": "[compound 13, 3′-(R)-3′-(phenylpropylaminomethyl)dihydrospectinomycin Trihydrochloride]", "values": [{"measurement": "MIC", "setting": "[1]", "value": "3.1 to 6.3", "unit": "µg/mL"}, {"measurement": "MIC", "setting": "[2]", "value": 6.3, "unit": "µg/mL"}, {"measurement": "MIC", "setting": "[3]", "value": 6.3, "unit": "µg/mL"}, {"measurement": "MIC", "setting": "[4]", "value": 12.5, "unit": "µg/mL"}, {"measurement": "MIC", "setting": "[5]", "value": "12.5 to 25", "unit": "µg/mL"}, {"measurement": "MIC", "setting": "[6]", "value": 3.1, "unit": "µg/mL"}, {"measurement": "MIC", "setting": "[7]", "value": 3.1, "unit": "µg/mL"}, {"measurement": "MIC", "setting": "[8]", "value": "> 200", "unit": "µg/mL"}, {"measurement": "MIC", "setting": "[9]; ATCC25416, read-out: MIC B.c., Burkholderia cepacia (ATCC 25416)", "value": "> 200", "unit": "µg/mL"}, {"measurement": "MIC", "setting": "[9]; ATCC25416, read-out: MIC B.c., Burkholderia cepacia, Table 6", "value": "> 200", "unit": "µg/mL"}, {"measurement": "MIC", "setting": "[10]", "value": 12.5, "unit": "µg/mL"}, {"measurement": "MIC", "setting": "E. coli K12 ΔtolC", "value": 6.3, "unit": "µg/mL"}, {"measurement": "MIC", "setting": "[11]", "value": 50, "unit": "µg/mL"}, {"measurement": "MIC", "setting": "[12]", "value": 200, "unit": "µg/mL"}, {"measurement": "MIC", "setting": "[13]", "value": "> 200", "unit": "µg/mL"}, {"measurement": "MIC", "setting": "[14]", "value": "≥ 200", "unit": "µg/mL"}, {"measurement": "MIC", "setting": "[15]", "value": "6.3 to 12.5", "unit": "µg/mL"}, {"measurement": "zone of inhibition at 4 µg/disc", "setting": "[16]", "value": 14, "unit": "mm"}, {"measurement": "zone of inhibition at 4 µg/disc", "setting": "[17]", "value": 21, "unit": "mm"}, {"measurement": "zone of inhibition at 4 µg/disc", "setting": "[18]", "value": 15, "unit": "mm"}, {"measurement": "MIC", "setting": "[19]", "value": "12.5 to 25", "unit": "µg/mL"}, {"measurement": "MIC", "setting": "Bacillus anthracis", "value": "3.1 to 6.3", "unit": "µg/mL"}, {"measurement": "MIC", "setting": "Yersinia pestis", "value": 50, "unit": "µg/mL"}, {"measurement": "MIC", "setting": "[20]", "value": 3.1, "unit": "µg/mL"}, {"measurement": "MIC relative to parent SPC", "setting": "[21]", "value": "~10 % of parent SPC"}, {"measurement": "MIC", "setting": "Listeria monocytogenes", "value": "1.6 to 3.1", "unit": "µg/mL"}, {"measurement": "MIC", "setting": "Moraxella catarrhalis", "value": 0.4, "unit": "µg/mL"}]}
